Results: patent US20230085307A1, “PYRIDAZINONE COMPOUND AND HERBICIDE” (NISSAN CHEMICAL CORPORATION, priority 2019, published 2023)

Experiments:
lambsquarters [1] = assay: Test Example 5: herbicidal effect by foliage application, plastic box (Table 20, symbol O); format: in vivo, lambsquarters (Chenopodium album); conditions: 320 g/ha
In short: (§1)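 Post-emergence foliar test in sterilized diluvial soil. Compound applied as water-diluted emulsion at a predetermined rate to 14-day-old plants; evaluation at three weeks.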

barnyard grass [2] = assay: Test Example 5: herbicidal effect by foliage application, plastic box (Table 20, symbol H); format: in vivo, barnyard grass (Echinochloa crus-galli); conditions: 320 g/ha
In short: as §1

wild oat [3] = assay: Test Example 4: herbicidal effect by soil treatment (Table 19, symbol I); format: in vivo, wild oat (Avena fatua); conditions: amount of applied herbicide 320 g/ha
In short: (§2)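 Scoring uses the grading scale of an earlier test, three weeks post-application. Treatment consists of spraying a diluted emulsion formulation across the surface of sterilized diluvial soil in which seeds are buried near 1.5 cm deep; boxes are kept in a greenhouse between 25° C. and 30° C.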

persian speedwell [4] = assay: Test Example 5: herbicidal effect by foliage application, plastic box (Table 20, symbol R); format: in vivo, Persian speedwell (Veronica persica); conditions: 320 g/ha
In short: as §1

rice flat sedge = assay: Test Example 3: herbicidal effect by foliage application, Wagner pot (Table 18, symbol E); format: in vivo, rice flat sedge (Cyperus iria); conditions: 320 g/ha
In short: (§3)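 Plants were sown in alluvial soil held under 0.1–0.5 cm standing water and grown 14 days in a greenhouse at 25–30 °C. An emulsifiable formulation, water-diluted to the set dose, was then sprayed onto the foliage, and effects were scored three weeks later using previously defined criteria.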

green foxtail [5] = assay: Test Example 4: herbicidal effect by soil treatment (Table 19, symbol G); format: in vivo, green foxtail (Setaria viridis); conditions: amount of applied herbicide 320 g/ha
In short: as §2

southern crabgrass [6] = assay: Test Example 4: herbicidal effect by soil treatment (Table 19, symbol F); format: in vivo, southern crabgrass (Digitaria ciliaris); conditions: amount of applied herbicide 320 g/ha
In short: as §2

blackgrass [7] = assay: Test Example 5: herbicidal effect by foliage application, plastic box (Table 20, symbol J); format: in vivo, blackgrass (Alopecurus myosuroides); conditions: 320 g/ha
In short: as §1

redroot pigweed [8] = assay: Test Example 5: herbicidal effect by foliage application, plastic box (Table 20, symbol N); format: in vivo, redroot pigweed (Amaranthus retroflexus); conditions: 320 g/ha, foliage application after 14-day growth, evaluated three weeks after application
In short: as §1

blackgrass [9] = assay: Test Example 4: herbicidal effect by soil treatment (Table 19, symbol J); format: in vivo, blackgrass (Alopecurus myosuroides); conditions: amount of applied herbicide 320 g/ha
In short: as §2

windgrass [10] = assay: Test Example 4: herbicidal effect by soil treatment (Table 19, symbol L); format: in vivo, windgrass (Apera spica-venti); conditions: amount of applied herbicide 320 g/ha
In short: as §2

persian speedwell [11] = assay: Test Example 4: herbicidal effect by soil treatment (Table 19, symbol R); format: in vivo, Persian speedwell (Veronica persica); conditions: amount of applied herbicide 320 g/ha
In short: as §2

velvetleaf [12] = assay: Test Example 5: herbicidal effect by foliage application, plastic box (Table 20, symbol M); format: in vivo, velvetleaf (Abutilon theophrasti); conditions: 320 g/ha
In short: as §1

green foxtail [13] = assay: Test Example 5: herbicidal effect by foliage application, plastic box (Table 20, symbol G); format: in vivo, green foxtail (Setaria viridis); conditions: 320 g/ha
In short: as §1

Chinese sprangletop = assay: Test Example 3: herbicidal effect by foliage application, Wagner pot (Table 18, symbol D); format: in vivo, chinese sprangletop (Leptochloa chinensis); conditions: 320 g/ha
In short: as §3

southern crabgrass [14] = assay: Test Example 5: herbicidal effect by foliage application, plastic box (Table 20, symbol F); format: in vivo, southern crabgrass (Digitaria ciliaris); conditions: 320 g/ha
In short: as §1

velvetleaf [15] = assay: Test Example 4: herbicidal effect by soil treatment (Table 19, symbol M); format: in vivo, velvetleaf (Abutilon theophrasti); conditions: amount of applied herbicide 320 g/ha
In short: as §2

wild oat [16] = assay: Test Example 5: herbicidal effect by foliage application, plastic box (Table 20, symbol I); format: in vivo, wild oat (Avena fatua); conditions: 320 g/ha
In short: as §1

Italian ryegrass [17] = assay: Test Example 5: herbicidal effect by foliage application, plastic box (Table 20, symbol K); format: in vivo, Italian ryegrass (Lolium multiflorum); conditions: 320 g/ha
In short: as §1

lambsquarters [18] = assay: Test Example 4: herbicidal effect by soil treatment (Table 19, symbol O); format: in vivo, lambsquarters (Chenopodium album); conditions: amount of applied herbicide 320 g/ha
In short: as §2

Italian ryegrass [19] = assay: Test Example 4: herbicidal effect by soil treatment (Table 19, symbol K); format: in vivo, Italian ryegrass (Lolium multiflorum); conditions: amount of applied herbicide 320 g/ha
In short: as §2

windgrass [20] = assay: Test Example 5: herbicidal effect by foliage application, plastic box (Table 20, symbol L); format: in vivo, windgrass (Apera spica-venti); conditions: 320 g/ha
In short: as §1

redroot pigweed [21] = assay: Test Example 4: herbicidal effect by soil treatment (Table 19, symbol N); format: in vivo, redroot pigweed (Amaranthus retroflexus); conditions: amount of applied herbicide 320 g/ha
In short: as §2

chickweed = assay: Test Example 4: herbicidal effect by soil treatment (Table 19, symbol P); format: in vivo, common chickweed (Stellaria media); conditions: amount of applied herbicide 320 g/ha
In short: as §2

barnyard grass [22] = assay: Test Example 4: herbicidal effect by soil treatment (Table 19, symbol H); format: in vivo, barnyard grass (Echinochloa crus-galli); conditions: amount of applied herbicide 320 g/ha
In short: as §2

barnyard grass [23] = assay: Test Example 3: herbicidal effect by foliage application, Wagner pot (Table 18, symbol H); format: in vivo, barnyard grass (Echinochloa crus-galli); conditions: 320 g/ha
In short: as §3

[24] = foliage application after 14-day growth, evaluated three weeks after application
[25] = foliage application, three weeks after application

CCOc1cccc(-c2sc3c(Cl)cccc3c2-c2c(O)c(C)nn(C)c2=O)c1 [4-066]
herbicidal effect on O: lambsquarters (evaluation grade 0-5) (lambsquarters [1]; [24]): 3 (Herbicidal rate of 40% or more and less than 70%) | herbicidal effect on H: barnyard grass (evaluation grade 0-5) (barnyard grass [2]; [24]): 3 (Herbicidal rate of 40% or more and less than 70%) | Herbicidal effect by soil treatment, I: wild oat (wild oat [3]): 0 (Herbicidal rate of 5% or less (almost no effect)) | herbicidal effect on R: persian speedwell (evaluation grade 0-5) (persian speedwell [4]; [24]): 3 (Herbicidal rate of 40% or more and less than 70%) | herbicidal effect on rice flat sedge (E) (rice flat sedge): 3 (Herbicidal rate of 40% or more and less than 70%) | Herbicidal effect by soil treatment, G: green foxtail (green foxtail [5]): 0 (Herbicidal rate of 5% or less (almost no effect)) | Herbicidal effect by soil treatment, F: southern crabgrass (southern crabgrass [6]): 0 (Herbicidal rate of 5% or less (almost no effect)) | herbicidal effect on J: blackgrass (evaluation grade 0-5) (blackgrass [7]; [24]): 0 (Herbicidal rate of 5% or less (almost no effect)) | herbicidal effect on N: redroot pigweed (evaluation grade 0-5) (redroot pigweed [8]): 4 (Herbicidal rate of 70% or more and less than 90%) | Herbicidal effect by soil treatment, J: blackgrass (blackgrass [9]): 0 (Herbicidal rate of 5% or less (almost no effect)) | Herbicidal effect by soil treatment, L: windgrass (windgrass [10]): 0 (Herbicidal rate of 5% or less (almost no effect)) | Herbicidal effect by soil treatment, R: persian speedwell (persian speedwell [11]): 4 (Herbicidal rate of 70% or more and less than 90%) | herbicidal effect on M: velvetleaf (evaluation grade 0-5) (velvetleaf [12]; [24]): 4 (Herbicidal rate of 70% or more and less than 90%) | herbicidal effect on G: green foxtail (evaluation grade 0-5) (green foxtail [13]; [24]): 1 (Herbicidal rate of 5% or more and less than 20%) | herbicidal effect on Chinese sprangletop (D) (Chinese sprangletop): 0 (Herbicidal rate of 5% or less (almost no effect)) | herbicidal effect on F: southern crabgrass (evaluation grade 0-5) (southern crabgrass [14]; [24]): 0 (Herbicidal rate of 5% or less (almost no effect)) | Herbicidal effect by soil treatment, M: velvetleaf (velvetleaf [15]): 0 (Herbicidal rate of 5% or less (almost no effect)) | herbicidal effect on I: wild oat (evaluation grade 0-5) (wild oat [16]; [24]): 0 (Herbicidal rate of 5% or less (almost no effect)) | herbicidal effect on K: Italian ryegrass (evaluation grade 0-5) (Italian ryegrass [17]; [24]): 3 (Herbicidal rate of 40% or more and less than 70%) | Herbicidal effect by soil treatment, O: lambsquarters (lambsquarters [18]): 0 (Herbicidal rate of 5% or less (almost no effect)) | Herbicidal effect by soil treatment, K: Italian ryegrass (Italian ryegrass [19]): 0 (Herbicidal rate of 5% or less (almost no effect)) | herbicidal effect on L: windgrass (evaluation grade 0-5) (windgrass [20]; [24]): 0 (Herbicidal rate of 5% or less (almost no effect)) | Herbicidal effect by soil treatment, N: redroot pigweed (redroot pigweed [21]): 0 (Herbicidal rate of 5% or less (almost no effect)) | Herbicidal effect by soil treatment, P: chickweed (chickweed): 0 (Herbicidal rate of 5% or less (almost no effect)) | Herbicidal effect by soil treatment, H: barnyard grass (barnyard grass [22]): 0 (Herbicidal rate of 5% or less (almost no effect))

CCCC(=O)Oc1c(C)nn(C)c(=O)c1-c1c(-c2ccc(F)cc2OCC)sc2cc(Cl)c(Cl)cc12 [5-054]
herbicidal effect on lambsquarters (O) (lambsquarters [1]; [25]): 3 (Herbicidal rate of 40% or more and less than 70%) | herbicidal effect on barnyard grass (H) (barnyard grass [2]; [25]): 4 (Herbicidal rate of 70% or more and less than 90%) | I: wild oat, herbicidal effect grade (wild oat [3]): 0 (Herbicidal rate of 5% or less (almost no effect)) | herbicidal effect on persian speedwell (R) (persian speedwell [4]; [25]): 4 (Herbicidal rate of 70% or more and less than 90%) | herbicidal effect on rice flat sedge (E) (rice flat sedge): 5 (Herbicidal rate of 90% or more (almost completely withered)) | G: green foxtail, herbicidal effect grade (green foxtail [5]): 0 (Herbicidal rate of 5% or less (almost no effect)) | F: southern crabgrass, herbicidal effect grade (southern crabgrass [6]): 0 (Herbicidal rate of 5% or less (almost no effect)) | herbicidal effect on blackgrass (J) (blackgrass [7]; [25]): 0 (Herbicidal rate of 5% or less (almost no effect)) | J: blackgrass, herbicidal effect grade (blackgrass [9]): 0 (Herbicidal rate of 5% or less (almost no effect)) | L: windgrass, herbicidal effect grade (windgrass [10]): 0 (Herbicidal rate of 5% or less (almost no effect)) | R: persian speedwell, herbicidal effect grade (persian speedwell [11]): 0 (Herbicidal rate of 5% or less (almost no effect)) | herbicidal effect on velvetleaf (M) (velvetleaf [12]; [25]): 4 (Herbicidal rate of 70% or more and less than 90%) | herbicidal effect on green foxtail (G) (green foxtail [13]; [25]): 2 (Herbicidal rate of 20% or more and less than 40%) | herbicidal effect on Chinese sprangletop (D) (Chinese sprangletop): 2 (Herbicidal rate of 20% or more and less than 40%) | herbicidal effect on barnyard grass (H) (barnyard grass [23]): 4 (Herbicidal rate of 70% or more and less than 90%) | herbicidal effect on southern crabgrass (F) (southern crabgrass [14]; [25]): 2 (Herbicidal rate of 20% or more and less than 40%) | M: velvetleaf, herbicidal effect grade (velvetleaf [15]): 0 (Herbicidal rate of 5% or less (almost no effect)) | herbicidal effect on wild oat (I) (wild oat [16]; [25]): 0 (Herbicidal rate of 5% or less (almost no effect)) | herbicidal effect on Italian ryegrass (K) (Italian ryegrass [17]; [25]): 0 (Herbicidal rate of 5% or less (almost no effect)) | O: lambsquarters, herbicidal effect grade (lambsquarters [18]): 0 (Herbicidal rate of 5% or less (almost no effect)) | K: Italian ryegrass, herbicidal effect grade (Italian ryegrass [19]): 0 (Herbicidal rate of 5% or less (almost no effect)) | herbicidal effect on windgrass (L) (windgrass [20]; [25]): 1 (Herbicidal rate of 5% or more and less than 20%) | N: redroot pigweed, herbicidal effect grade (redroot pigweed [21]): 0 (Herbicidal rate of 5% or less (almost no effect)) | P: chickweed, herbicidal effect grade (chickweed): 2 (Herbicidal rate of 20% or more and less than 40%) | H: barnyard grass, herbicidal effect grade (barnyard grass [22]): 0 (Herbicidal rate of 5% or less (almost no effect))
